Consider four compounds from patent publication US20140364405A1, “TREATMENT OF SEBORRHOEA” (McFarlane Marketing (Aust.)Pty. Ltd., priority 2011, published 2014).

The subject of test [1] is skin sebum (skin surface lipids). The test can be described thus: Pilot clinical study: sebum reduction measured with Sebumeter SM810PC. The test is classed as in vivo, humans. To be noted: for sebum reduction: one side of face, after 28 days. As for the experimental part: (§1) In an initial pilot study in humans, 3 topical formulations were evaluated for effectiveness in reduction of sebum or treatment of acne.
(§2) The active substance in each of these formulations was: • Formulation 1—natural isolutrol (sodium 24R—scymnol sulphate). • Formulation 2—synthetic (24R)—scymnol. • Formulation 3—synthetic racemic (24RS)—scymnol.
(§3) In each formulation, the active substance was incorporated at 0.015% w/w into an oil-free topical lotion. In the pilot study, each test formulation was applied to one side of the face of a test subject, twice daily, for 28 days in the case of Formulations 1 and 2, and for 42 days in the case of Formulation 3. For each test formulation, 10 healthy female test subjects participated in the pilot study.
For the evaluation of sebum reduction, a Sebumeter SM810PC (Courage+Khazaka electronic GmbH) was used to obtain measurement of skin sebum (skin surface lipids) on days 0, 3, 7, 14, 21, 28, 35 and 42. To accomplish this, a special purpose film of the cartridge measuring head was applied for 30 seconds to the relevant skin area. The cartridge was inserted into the Sebumeter SM810 PC for electronic determination of film transparency variations. The LC-display of the instrument presents the result in terms of μg/cm^2. Duplicated measurements were obtained on the same site at each visit, and the results were averaged.

The subject of test [2] is liver dysfunction. To be noted: in vivo; cited from earlier work.
Test [3] concerns seborrhoea. To be noted: particularly when used topically; cited from earlier work.
In test [4] the test system is total acne lesion (pustules, papules and comedones) counts. The test can be described thus: Pilot clinical study: anti-acne treatment, total acne lesion counts. The format is in vivo, humans. To be noted: 0.015% w/w in oil-free topical lotion, twice daily, over the 42 day test period. The protocol:
as §1, §2, §3
For evaluation of anti-acne treatment, reduction in total acne lesion (pustules, papules and comedones) counts was measured.

Where [5] appears, read: 0.015% w/w in oil-free topical lotion, twice daily.

As for `C[C@H](CC[C@@H](O)C(CO)CO)[C@H]1CC[C@H]2[C@@H]3[C@H](O)C[C@@H]4C[C@H](O)CC[C@]4(C)[C@H]3C[C@H](O)[C@]12C` [(24R)-scymnol, 24R-(+)-5β-cholestane-3α,7α,12α,24,26,27-hexol], the sebum reduction result in test [1] (setting [5]) is listed as “at least as effective in sebum reduction as the active substance of Formulation 1”. Also, the “treatment of liver dysfunction” value in test [2] is given as “activity in the treatment of liver dysfunction”.
For the compound `C[C@H](CC[C@@H](O)C(CO)CO)[C@H]1CC[C@H]2[C@@H]3[C@H](O)C[C@@H]4C[C@H](O)CC[C@]4(C)[C@H]3C[C@H](O)[C@]12C` [(24S)-scymnol], the “effect of presence of the non-natural enantiomer in the racemate on the sebum study” value in test [1] (as component of racemic (24RS)-scymnol of Formulation 3) is given as “no adverse effect in the sebum study”.
For the compound `CC(CC[C@@H](O)C(CO)COS(=O)(=O)[O-])C1CCC2C3C(O)C[C@@H]4CC(O)CCC4(C)C3CC(O)C12C.[Na+]` (stereo partly drawn) [sodium 24R-scymnol sulphate, 24(+)-3α, 7α,12α,24,26-pentahydroxy-coprostane-27-sodium sulphate ester], in test [3], the treatment of seborrhoea entry was “effective in the treatment of seborrhoea”.
For “racemic (24RS,25RS) sodium scymnol sulphate [racemic (24RS)-scymnol]”, the sebum reduction result in test [1] (setting [5]) was “at least as effective in sebum reduction as the active substances of Formulations 1 and 2”. In test [1] (0.015% w/w in oil-free topical lotion, twice daily, test period extended to 42 days), the “sebum reduction when test period extended” value was “sebum reduction continued”. Also, in test [4], the “reduction of total acne lesion counts” value is reported as “effective in reduction of total acne lesion counts”.
